Assay results from patent US20090217396A1, “Inflammation models in neurodegenerative and arthritic disorders” (priority 2004, published 2009).
Entries after “also recorded” stand apart in the source; their conditions may differ.

Tests used:
[1] = tested on: 293HGLVP/CrePr cells; experiment: RU486-induced CrePr activation of transfected IL-1β^XAT; format: cell-based, human
Description: Neurobiol Aging 23:977-84] and the expression of IL-1β and lacZ was evaluated following RU486 (10^-7M) administration.
Mol Ther 8: 790-95]. […] Please refer to FIG. 3 for summary of the experiment.

[2] = tested on: primary rat endothelial cell cultures; experiment: Regulation of inflammation-related genes by IL-1β with or without indomethacin in endothelial cells; format: cell-based
Description: The effects of IL-1β were evaluated in vitro utilizing primary rat endothelial cell cultures as a representative rodent cell type. In this experiment, murine IL-1β (10 ng/mL) was administered exogenously to cultured primary cells, and subsequently examined the regulation of several inflammation-related genes at the transcript level over the course of 72 hours. These molecules include (A) the inducible isoform of cyclooxygenase (COX-2), intercellular adhesion molecule-1 (ICAM-1) and monocyte chemoattractant protein-1 (MCP-1), as well as (B) the […]. Panel (C) depicts enzyme activity levels of MMP-2 and MMP-9 as evaluated by zymography.
The regulation of pro-collagen IV was also included in the study as control (not an inflammatory gene)—Panel B.
Mol Ther 8: 790-95], rat endothelial cells were employed as a representative rodent model to investigate the effects of IL-1β on the regulation of ICAM-1, MCP-1, MMP-2 and MMP-9 at the transcriptional level (mRNA) as well as the enzyme activity level (zymography).
Non-steroidal anti-inflammatory drugs (NSAIDS) are inhibitors of cyclooxygenase, a rate-limiting enzyme in the production of prostaglandins. Indomethacin, a prototype NSAID often employed in laboratory studies as well as in the hospital setting, has been evaluated for the potential to modulate the inflammatory response elicited by pro-inflammatory cytokines, such as IL-1β. To this end, rodent cells were utilized as a model to study the interaction between IL-1β, and indomethacin in vitro [Kyrkanides S, et al. (2000).

[3] = tested on: C57BL/6 mice; conditions: morphine intraperitoneal 30 min prior to formalin injection
[4] = tested on: adult mice; experiment: IL-1β injection into the cisterna magna: CGRP and GFAP IHC; format: in vivo, mouse; conditions: 10 ng in 2 μl into cisterna magna
Description: FIG. 51 whose IL-1β injection into the cisterna magna induces neuronal excitation and astrocyte activation. Recombinant IL-1β was injected into the cisterna magna of adult mice (10 ng in 2 μl of aqueous solution). Neuronal excitation was evaluated by CGRP and astrocyte activation by GFAP IHC. (A) The saline-injected mouse is characterized by lack of CGRP expression at the main sensory nucleus. […] GFAP immunohistochemistry in (C) control and (D) experimental mice.

[5] = INDO + IL-1β simultaneously vs IL-1β alone (FIG. 7)
[6] = murine IL-1β 10 ng/mL, over 72 hours (FIG. 6)
[7] = recombinant IL-1β alone (FIG. 7)

CC#C[C@]1(O)CC[C@H]2[C@@H]3CCC4=CC(=O)CCC4=C3[C@@H](c3ccc(N(C)C)cc3)C[C@@]21C [RU486, mifepristone]
IL-1β and lacZ mRNA (RT-PCR) ([1]; RU486 10^-7M, IL-1β^XAT transiently transfected): up-regulation | secreted IL-1β protein in supernatant media (ELISA for human IL-1β) ([1]; RU486-treated cells): significantly higher levels | IL-1β^XAT DNA recombination ([1]; RU486 administration following IL-1β^XAT transfection): DNA excisional recombination | number of X-gal positive cells (β-galactosidase reporter) ([1]; RU486 in culture media vs naïve cells): significant increase

COc1ccc2c(c1)c(CC(=O)O)c(C)n2C(=O)c1ccc(Cl)cc1 [indomethacin]
ICAM-1, MCP-1 and MMP-9 transcript levels [2, 5]: further increased | collagenase activity of MMP-2 and MMP-9 [2, 5]: further increased | expression of inflammatory mediators induced by IL-1β ([2]; indomethacin with IL-1β, rodent cells in vitro (FIG. 7)): further exacerbated

CN1CC[C@]23c4c5ccc(O)c4O[C@H]2[C@@H](O)C=C[C@H]3[C@H]1C5 [morphine]
orofacial grooming in formalin-challenged mice [3]: normalized; also recorded: attenuation of orofacial grooming in formalin-challenged mice to near normal levels

B1: IL-1β: recombinant IL-1β cytokine administered exogenously to cells or injected into the cisterna magna (protein, UniProt P10749 118-269, looked up)
Interleukin-1 beta: VPIRQLHYRLRDEQQKSLVLSDPYELKALHLNGQNINQQVIFSMSFVQGEPSNDKIPVALGLKGKNLYLSCVMKDGTPTLQLESVDPKQYPKKKMEKRFVFNKIEVKSKVEFESAEFPNWYISTSQAEHKPVFLGNNSGQDIIDFTMESVSS
astrocyte activation (GFAP IHC) in brain stem [4]: activation of astrocytes | CGRP expression at main sensory nucleus (neuronal excitation) ([4]; vs saline): pronounced CGRP immunoreactivity | MMP-2 enzyme activity (zymography) [2, 6]: increased with time | mRNA levels of MMP-2 [2, 6]: not altered | synthesis of COX-2, MCP-1, ICAM-1 and MMP-9 (mRNA) [2, 6]: upregulated | enzyme activity of MMP-2 and MMP-9 (zymography) [2, 7]: upregulated | transcriptional expression of ICAM-1, MCP-1 and MMP-9 (RT-PCR) [2, 7]: induced
